For the experiment, the system named is HCV replicon (5-2 Luc replicon-comprising cells). Briefly: HCV replicon assay (luciferase). The class given is cell-based, Hepatitis C virus. The following applies: 5-2 Luc replicon cells, luciferase readout; read-out: Replicon IC50. From the text:
In one embodiment, the inhibitory activity of the compounds can be confirmed in a replicon assay that assesses the ability of a test compound to block or inhibit HCV replication in replicon cells. One example of a suitable replicon assay is the liver cell-line Huh 7-based replicon assay described in Lohmann et al., 1999, Science 285:110–113. A specific example of this replicon assay which utilizes luciferase translation is provided in the Examples Section. In one embodiment of this assay, the amount of test compound that yields a 50% reduction in translation as compared to a control cell (IC50) may be determined.
The inhibitory activity of certain exemplary compounds of the invention was confirmed using an HCV replicon assay. The HCV replicon can include such features as the HCV 5′ untranslated region including the HCV IRES, the HCV 3′ untranslated region, selected HCV genes encoding HCV polypeptides, selectable markers, and a reporter gene such as luciferase, GFP, etc. In the assay, actively dividing 5-2 Luc replicon-comprising cells (obtained from Ralf Bartenschlager; see Lohmann et al., 1999, Science 285:110–113) were seeded at a density of between about 5,000 and 7,500 cells/well onto 96 well plates (about 90 μl of cells per well) and incubated at 37° C. and 5% CO2 for 24 hours. Then, the test compound (in a volume of about 10 μl) was added to the wells at various concentrations and the cells were incubated for an additional 24 hours before luciferase assay. Briefly, the Bright-Glo reagent was diluted 1:1 with PBS and 100 μl of diluted reagent was added to each well. After 5 min of incubation at room temperature, luciferin emission was quantified with a luminometer. In this assay, the amount of test compound that yielded a 50% reduction in luciferase activity (IC50) was determined.
In TABLE 1, a value of “+” indicates an IC50 of 10 μM or less in the specified assay; a value of “−” indicates an IC50 of greater than 10 μM in the specified assay.
(In general: Replicon systems follow genome replication, usually without infectious particles.)

Molecules are shown by their SMILES.

On to `O=C(Nc1cccc(-c2cc(-c3c(Cl)cccc3N3CCN(C(=O)c4cnccn4)CC3)no2)c1)C(Cl)Cl` [Compound 556], for which the IC50 (commonly the point on the concentration scale where inhibition reaches its midpoint) is below 10 µM.
For `NC(Cc1ccccc1)C(=O)N1CCN(c2cccc(Cl)c2-c2cc(-c3cccc(NC(=O)C(Cl)Cl)c3)on2)CC1` (stereo not shown) [Compound 541] the value was above 10 µM; for `CCN1CCN(c2cccc(Cl)c2-c2cc(-c3cccc(NC(=O)C(Cl)Cl)c3)on2)CC1` [Compound 627], below 10 µM.
For `O=C(Nc1cc(-c2cc(-c3c(Cl)cccc3Cl)no2)ccc1OCCN1CCOCC1)C(Cl)Cl` [Compound 171, 2,2-Dichloro-N-[3-[3-(2,6-dichlorophenyl)-5-isoxazolyl]-6-(N-morpholino-2-ethyleneoxy)phenyl]Acetamide] the value was above 10 µM; for `CS(=O)(=O)NC1CCN(c2cccc(Cl)c2-c2cc(-c3cccc(NC(=O)C(Cl)Cl)c3)on2)CC1` [Compound 546], below 10 µM.
On to `O=C(Nc1cccc(-c2cc(-c3c(Cl)cccc3N3CCN(Cc4ccccn4)CC3)no2)c1)C(Cl)Cl` [Compound 526], for which the IC50 is below 10 µM.
For `O=C(Nc1cccc(-c2cc(-c3c(Cl)cccc3N3CCC(NCc4ccccn4)CC3)no2)c1)C(Cl)Cl` [Compound 588] the value was below 10 µM; for `CC(=O)Nc1cccc(Cl)c1-c1cc(-c2cccc(NC(=O)C(Cl)Cl)c2)on1` [Compound 560], below 10 µM; for `O=C(Nc1cccc(-c2cc(-c3c(Cl)cccc3N3CCN(S(=O)(=O)c4ccccc4)CC3)no2)c1)C(Cl)Cl` [Compound 514], below 10 µM.
To `CC(C)(C)OC(=O)N1CCCC(Oc2cccc(Cl)c2-c2cc(-c3cccc(NC(=O)C(Cl)Cl)c3)on2)C1` (stereo not shown) [Compound 570] belongs below 10 µM; to `O=C(Nc1cccc(-c2cc(-c3c(Cl)cccc3N3CCN(C(=O)c4ccc(F)cc4)CC3)no2)c1)C(Cl)Cl` [Compound 662], below 10 µM; to `O=C(NC1CCN(c2cccc(Cl)c2-c2cc(-c3cccc(NC(=O)C(Cl)Cl)c3)on2)CC1)c1ccco1` [Compound 543], below 10 µM.
To `CCOC(=O)N1CCN(c2cccc(Cl)c2-c2cc(-c3cccc(NC(=O)C(Cl)Cl)c3)on2)CC1` [Compound 624] belongs below 10 µM.
For the compound `O=C(Nc1cccc(-c2cc(-c3c(Cl)cccc3N3CCC(OC(=O)C(Cl)Cl)CC3)no2)c1)C(Cl)Cl` [Compound 527], the IC50 was below 10 µM.
To `CC(C)N1CCN(c2cccc(Cl)c2-c2cc(-c3cccc(NC(=O)C(Cl)Cl)c3)on2)CC1` [Compound 632] belongs below 10 µM.
To `O=C(Nc1cccc(-c2cc(-c3c(Cl)cc(OCCCN4CCOCC4)cc3Cl)no2)c1)C(Cl)Cl` [Compound 73, 2,2-Dichloro-N-[3-[3-[2,6-dichloro-4-(N-morpholinopropyleneoxy)phenyl]-5-isoxazolyl]-phenyl]Acetamide] belongs below 10 µM.
For `O=C(Nc1cccc(-c2cc(-c3c(Cl)cccc3N3CCN(C(=O)c4ccncc4)CC3)no2)c1)C(Cl)Cl` [Compound 552] the value was below 10 µM; for `CCNc1cccc(Cl)c1-c1cc(-c2cccc(NC(=O)C(Cl)Cl)c2)on1` [Compound 507], below 10 µM.
For `O=C(Nc1cccc(-c2cc(-c3c(Cl)cccc3OC(=O)N3CCOCC3)no2)c1)C(Cl)Cl` [Compound 602], the IC50 was below 10 µM.
To `O=C(Nc1cccc(-c2cc(-c3c(Cl)cccc3N3CCN(C(=O)Cc4ccccc4)CC3)no2)c1)C(Cl)Cl` [Compound 533] belongs below 10 µM.
To `CC(C)(C)OC(=O)N1CCCCC1C(=O)N1CCN(c2cccc(Cl)c2-c2cc(-c3cccc(NC(=O)C(Cl)Cl)c3)on2)CC1` (stereo not shown) [Compound 656] belongs below 10 µM; to `O=C(Nc1cccc(-c2cc(-c3ccccc3N3CCOCC3)no2)c1)C(Cl)Cl` [Compound 612], below 10 µM; to `O=C(Nc1cccc(-c2cc(-c3c(Cl)cccc3N3CCC4(CC3)OCCO4)no2)c1)C(Cl)Cl` [Compound 615], below 10 µM.
To `O=C(Nc1cccc(-c2cc(-c3c(Cl)cccc3N3CCN(Cc4ccncc4)CC3)no2)c1)C(Cl)Cl` [Compound 650] belongs below 10 µM; to `O=C(Nc1cccc(-c2cc(-c3ccccc3-c3ccccc3)no2)c1)C(Cl)Cl` [Compound 123, 2,2-Dichloro-N-[3-[3-(2-phenyl)phenyl-5-isoxazolyl]phenyl]Acetamide], below 10 µM.
Take `CN(C)CCN1CCN(c2cccc(Cl)c2-c2cc(-c3cccc(NC(=O)C(Cl)Cl)c3)on2)CC1` [Compound 630]: the IC50 is below 10 µM.
To `COc1cccc(N2CCN(c3cccc(Cl)c3-c3cc(-c4cccc(NC(=O)C(Cl)Cl)c4)on3)CC2)c1` [Compound 524] belongs below 10 µM; to `CN(C)C(=O)NC1CCN(c2cccc(Cl)c2-c2cc(-c3cccc(NC(=O)C(Cl)Cl)c3)on2)C1` (stereo not shown) [Compound 574], below 10 µM.
For `O=C(Nc1cccc(-c2cc(-c3c(Cl)cccc3N3CCN(c4ncccn4)CC3)no2)c1)C(Cl)Cl` [Compound 517] the value was below 10 µM.
For the compound `O=C(Nc1cccc(-c2cc(-c3c(Cl)cccc3N3CCN(C(=O)CCc4ccccc4)CC3)no2)c1)C(Cl)Cl` [Compound 647], the IC50 was below 10 µM.
For `O=C(Nc1cccc(-c2noc(-c3c(Cl)cccc3Cl)n2)c1)C(Cl)Cl` [Compound 87, 2,2-Dichloro-N-[3-[5-(2,6-dichlorophenyl)-3-(1,2,4-oxadiazolyl)]phenyl]Acetamide] the value was below 10 µM; for `O=C(Nc1cccc(-c2cc(-c3c(Cl)cccc3OC3CCNCC3)no2)c1)C(Cl)Cl` [Compound 569], below 10 µM; for `O=C(Nc1cccc(-c2cc(-c3c(Cl)cccc3N3CCN(Cc4cccnc4)CC3)no2)c1)C(Cl)Cl` [Compound 522], below 10 µM.
For `O=C(Nc1cccc(-c2cc(-c3c(Cl)cccc3N3CCN(c4cccc(Cl)c4)CC3)no2)c1)C(Cl)Cl` [Compound 620] the value was below 10 µM; for `O=C(Nc1cccc(-c2cc(-c3c(Cl)cccc3N3CCSCC3)no2)c1)C(Cl)Cl` [Compound 616], below 10 µM; for `CN(C)S(=O)(=O)N1CCN(c2cccc(Cl)c2-c2cc(-c3cccc(NC(=O)C(Cl)Cl)c3)on2)CC1` [Compound 540], below 10 µM.
As to `O=C(Nc1cccc(-c2cc(-c3c(Cl)cccc3N3CCN(C(=O)c4cccnc4)CC3)no2)c1)C(Cl)Cl` [Compound 553], the IC50 is below 10 µM.
For `CCNC(=O)N1CCC(Oc2cccc(Cl)c2-c2cc(-c3cccc(NC(=O)C(Cl)Cl)c3)on2)C1` (stereo not shown) [Compound 597] the value was below 10 µM; for `CN(C)C1CCN(c2cccc(Cl)c2-c2cc(-c3cccc(NC(=O)C(Cl)Cl)c3)on2)C1` (racemic) [Compound 132, (±)-2,2-Dichloro-N-[3-[3-[2-chloro-6-(3-dimethylamino-N-pyrrolidino)phenyl]-5-isoxazolyl]-phenyl]Acetamide], below 10 µM; for `O=C(Nc1cccc(-c2cc(-c3c(Cl)cccc3N3CCN(CCc4ccccn4)CC3)no2)c1)C(Cl)Cl` [Compound 653], below 10 µM.
To `O=C(Nc1cccc(-c2cc(-c3c(Cl)cccc3N3CCN(C(=O)c4ccccn4)CC3)no2)c1)C(Cl)Cl` [Compound 513] belongs below 10 µM; to `CC(=O)NC1CCN(c2cccc(Cl)c2-c2cc(-c3cccc(NC(=O)C(Cl)Cl)c3)on2)C1` (stereo not shown) [Compound 565], below 10 µM; to `N#Cc1ccccc1-c1cc(-c2cccc(NC(=O)C(Cl)Cl)c2)on1` [Compound 610], below 10 µM.
For `O=C(Nc1cccc(-c2cc(-c3c(Cl)cccc3N3CCN(C(=O)C(F)(F)F)CC3)no2)c1)C(Cl)Cl` [Compound 566], the IC50 was below 10 µM.
For `CCNC(=O)NC1CCN(c2cccc(Cl)c2-c2cc(-c3cccc(NC(=O)C(Cl)Cl)c3)on2)CC1` [Compound 579] the value was below 10 µM; for `CCNC(=O)Oc1cccc(Cl)c1-c1cc(-c2cccc(NC(=O)C(Cl)Cl)c2)on1` [Compound 600], below 10 µM; for `O=C(Nc1cccc(-c2cc(-c3c(Cl)cccc3N3CCN(c4ccc(C(F)(F)F)cn4)CC3)no2)c1)C(Cl)Cl` [Compound 536], below 10 µM.
To `O=C(Nc1cccc(-c2cc(-c3c(Cl)cccc3N3CCNCC3)no2)c1)C(Cl)Cl` [Compound 511] belongs below 10 µM; to `O=C(NC1CCN(c2cccc(Cl)c2-c2cc(-c3cccc(NC(=O)C(Cl)Cl)c3)on2)CC1)c1cccnc1` [Compound 545], below 10 µM; to `COc1ccc(C(=O)N2CCN(c3cccc(Cl)c3-c3cc(-c4cccc(NC(=O)C(Cl)Cl)c4)on3)CC2)cc1` [Compound 664], below 10 µM.
For `CC(C)(C)OC(=O)N1CCC(CCOc2cccc(Cl)c2-c2cc(-c3cccc(NC(=O)C(Cl)Cl)c3)on2)CC1` [Compound 639] the value was below 10 µM.
With `O=C(Nc1cccc(-c2cc(-c3c(Cl)cccc3I)no2)c1)C(Cl)Cl` [Compound 677], the IC50 was below 10 µM.

The values above are taken from patent US7115642B2, “Substituted diphenyl isoxazoles, pyrazoles and oxadiazoles useful for treating HCV infection” (priority 2003, dated 2006).
